Measured values from US20240109917A1 (ACTELION PHARMACEUTICALS LTD, priority 2020, published 2024).

Tests used:
VEGFR2, unphosphorylated = VEGFR2, unphosphorylated (Homo sapiens (Human), UniProt P35968); test: VEGFR ADP GLO Assay; type: biochemical
[1] = target: His6-TEV-PDGFRβ (557-1016) (Homo sapiens (Human), UniProt P09619); test: PDGFRβ HTRF Assay; type: biochemical; settings: read-out: PDGFR HTRF IC50
Outline: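 HTRF KinEASE-TK readout (665/620 nm ratio) of TK-biotin substrate phosphorylation by His-tagged PDGFRβ kinase domain. Enzyme and inhibitor preincubated 30 min, then ATP/substrate added for 3 h at room temperature before 60 min EDTA quench/detection.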

VEGFR2, unphosphorylated, sequence (P35968 20-1356): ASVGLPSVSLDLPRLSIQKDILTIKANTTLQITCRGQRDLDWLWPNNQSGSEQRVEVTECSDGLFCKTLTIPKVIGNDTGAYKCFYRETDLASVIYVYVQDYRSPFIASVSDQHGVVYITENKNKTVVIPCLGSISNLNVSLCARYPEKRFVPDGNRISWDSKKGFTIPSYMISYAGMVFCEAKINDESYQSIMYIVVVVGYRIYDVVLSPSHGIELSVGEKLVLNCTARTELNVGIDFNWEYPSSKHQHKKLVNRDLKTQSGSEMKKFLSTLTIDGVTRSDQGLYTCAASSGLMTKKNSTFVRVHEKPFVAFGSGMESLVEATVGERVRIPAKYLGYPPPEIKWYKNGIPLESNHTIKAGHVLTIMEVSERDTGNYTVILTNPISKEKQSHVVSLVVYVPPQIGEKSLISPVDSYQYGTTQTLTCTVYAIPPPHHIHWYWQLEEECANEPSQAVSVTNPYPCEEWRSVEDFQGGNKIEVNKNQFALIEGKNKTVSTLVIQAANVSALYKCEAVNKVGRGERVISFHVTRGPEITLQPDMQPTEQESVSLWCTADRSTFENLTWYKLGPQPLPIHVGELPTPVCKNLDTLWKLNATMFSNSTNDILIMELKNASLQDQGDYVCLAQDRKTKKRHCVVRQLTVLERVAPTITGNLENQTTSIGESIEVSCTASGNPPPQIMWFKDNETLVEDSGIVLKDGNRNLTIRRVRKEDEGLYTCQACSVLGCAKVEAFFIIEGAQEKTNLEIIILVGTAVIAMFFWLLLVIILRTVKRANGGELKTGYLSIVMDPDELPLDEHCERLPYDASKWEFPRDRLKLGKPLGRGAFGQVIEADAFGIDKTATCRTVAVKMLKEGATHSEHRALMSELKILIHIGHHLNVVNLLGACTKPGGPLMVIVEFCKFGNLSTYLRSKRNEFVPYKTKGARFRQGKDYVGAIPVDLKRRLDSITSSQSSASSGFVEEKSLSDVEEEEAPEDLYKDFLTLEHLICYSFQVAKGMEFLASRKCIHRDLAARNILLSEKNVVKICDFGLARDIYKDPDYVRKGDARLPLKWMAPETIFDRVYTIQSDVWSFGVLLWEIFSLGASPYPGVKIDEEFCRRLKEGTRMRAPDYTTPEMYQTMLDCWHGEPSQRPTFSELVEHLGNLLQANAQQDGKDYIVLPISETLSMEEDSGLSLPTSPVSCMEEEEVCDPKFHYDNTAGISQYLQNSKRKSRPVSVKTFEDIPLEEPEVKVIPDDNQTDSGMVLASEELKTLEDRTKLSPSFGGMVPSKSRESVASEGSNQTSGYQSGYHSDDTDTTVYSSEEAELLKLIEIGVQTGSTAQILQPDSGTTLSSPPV
His6-TEV-PDGFRβ (557-1016), sequence (P09619 557-1016): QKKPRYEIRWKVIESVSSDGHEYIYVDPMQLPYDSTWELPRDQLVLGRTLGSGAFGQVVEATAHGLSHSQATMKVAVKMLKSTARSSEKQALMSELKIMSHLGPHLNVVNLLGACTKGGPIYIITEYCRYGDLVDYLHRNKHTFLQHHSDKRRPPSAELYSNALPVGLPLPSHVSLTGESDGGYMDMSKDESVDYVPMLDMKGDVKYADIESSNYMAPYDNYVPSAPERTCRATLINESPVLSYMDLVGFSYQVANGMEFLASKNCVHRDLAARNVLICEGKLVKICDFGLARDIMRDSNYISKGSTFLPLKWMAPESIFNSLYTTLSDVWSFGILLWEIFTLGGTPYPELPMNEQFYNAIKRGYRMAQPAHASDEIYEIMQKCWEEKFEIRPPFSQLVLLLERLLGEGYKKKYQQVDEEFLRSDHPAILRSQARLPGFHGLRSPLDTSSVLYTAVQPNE

Cc1ncc(NC(=O)[C@H]2CCCN2C(C)C)cc1NC(=O)c1cnn2cc(-c3cnn4c3OCCC4)sc12 [Example 347, (R)-2-(6,7-dihydro-5H-pyrazolo[5,1-b][1,3]oxazin-3-yl)-N-(5-(1-isopropylpyrrolidine-2-carboxamido)-2-methylpyridin-3-yl)pyrazolo[5,1-b]thiazole-7-carboxamide]
IC50 (VEGFR2, unphosphorylated): > 7500 nM | IC50 [1]: 0.5 nM

Cc1ncc(NC(=O)CN2C[C@@H](CO)OC(C)(C)C2)cc1NC(=O)c1cnn2cc(-c3cnn(C)c3)sc12 [Example 377, (S)—N-(5-(2-(6-(hydroxymethyl)-2,2-dimethylmorpholino)acetamido)-2-methylpyridin-3-yl)-2-(1-methyl-1H-pyrazol-4-yl)pyrazolo[5,1-b]thiazole-7-carboxamide]
IC50 (VEGFR2, unphosphorylated): > 7500 nM | IC50 [1]: 0.8 nM

Cc1ncc(NC(=O)C[C@H]2CCCN2C(C)C)cc1NC(=O)c1cnn2cc(-c3cnn4c3OCCC4)sc12 [Example 351, (R)-2-(6,7-dihydro-5H-pyrazolo[5,1-b][1,3]oxazin-3-yl)-N-(5-(2-(1-isopropylpyrrolidin-2-yl)acetamido)-2-methylpyridin-3-yl)pyrazolo[5,1-b]thiazole-7-carboxamide]
IC50 (VEGFR2, unphosphorylated): > 7500 nM | IC50 [1]: 0.3 nM

COCCn1cc(-c2cn3ncc(C(=O)Nc4cc(NC(=O)CN5CCCC5)cnc4C)c3s2)cn1 [Example 337, 2-(1-(2-methoxyethyl)-1H-pyrazol-4-yl)-N-(2-methyl-5-(2-(pyrrolidin-1-yl)acetamido)pyridin-3-yl)pyrazolo[5,1-b]thiazole-7-carboxamide]
IC50 (VEGFR2, unphosphorylated): > 7500 nM | IC50 [1]: 1.8 nM

Cc1ncc(NC(=O)CN2CC(C)C2)cc1NC(=O)c1cnn2cc(-c3cnn4c3OCCC4)sc12 [Example 407, 2-(6,7-dihydro-5H-pyrazolo[5,1-b][1,3]oxazin-3-yl)-N-(2-methyl-5-(2-(3-methylazetidin-1-yl)acetamido)pyridin-3-yl)pyrazolo[5,1-b]thiazole-7-carboxamide]
IC50 (VEGFR2, unphosphorylated): > 7500 nM | IC50 [1]: 0.3 nM

Cc1ncc(NC(=O)[C@@H]2CCCN2C)cc1NC(=O)c1cnn2cc(-c3cnn4c3OCCC4)sc12 [Example 349, (S)-2-(6,7-dihydro-5H-pyrazolo[5,1-b][1,3]oxazin-3-yl)-N-(2-methyl-5-(1-methylpyrrolidine-2-carboxamido)pyridin-3-yl)pyrazolo[5,1-b]thiazole-7-carboxamide]
IC50 (VEGFR2, unphosphorylated): > 7500 nM | IC50 [1]: 0.6 nM

COc1ncccc1-c1cn2ncc(C(=O)Nc3cc(C(=O)NCCN4CC(C)(C)C4)cnc3C)c2s1 [Example 387, N-(5-((2-(3,3-dimethylazetidin-1-yl)ethyl)carbamoyl)-2-methylpyridin-3-yl)-2-(2-methoxypyridin-3-yl)pyrazolo[5,1-b]thiazole-7-carboxamide]
IC50 (VEGFR2, unphosphorylated): > 7500 nM | IC50 [1]: 0.2 nM

COc1cccc(-c2cn3ncc(C(=O)Nc4cc(NC(=O)CN5CC(C)(C)C5)cnc4C)c3s2)n1 [Example 394, N-(5-(2-(3,3-dimethylazetidin-1-yl)acetamido)-2-methylpyridin-3-yl)-2-(6-methoxypyridin-2-yl)pyrazolo[5,1-b]thiazole-7-carboxamide]
IC50 (VEGFR2, unphosphorylated): > 7500 nM | IC50 [1]: 0.2 nM

Cc1ncc(C(=O)NCCN2CCCC2(C)C)cc1NC(=O)c1cnn2cc(-c3cnn(Cc4cc(OCc5ccccc5)no4)c3)sc12 [Example 362, 2-(1-((3-(benzyloxy)isoxazol-5-yl)methyl)-1H-pyrazol-4-yl)-N-(5-((2-(2,2-dimethylpyrrolidin-1-yl)ethyl)carbamoyl)-2-methylpyridin-3-yl)pyrazolo[5,1-b]thiazole-7-carboxamide]
IC50 (VEGFR2, unphosphorylated): > 2500 nM | IC50 [1]: 0.5 nM

Cc1ncc(NC(=O)C2CN(C(C)C)C2)cc1NC(=O)c1cnn2cc(-c3cnn(C)c3C)sc12 [Example 357, 2-(1,5-dimethyl-1H-pyrazol-4-yl)-N-(5-(1-isopropylazetidine-3-carboxamido)-2-methylpyridin-3-yl)pyrazolo[5,1-b]thiazole-7-carboxamide]
IC50 (VEGFR2, unphosphorylated): > 7500 nM | IC50 [1]: 0.2 nM

COCCn1cc(-c2cn3ncc(C(=O)Nc4cc(NC(=O)[C@H]5CCCN5C(C)C)cnc4C)c3s2)cn1 [Example 344, (R)—N-(5-(1-isopropylpyrrolidine-2-carboxamido)-2-methylpyridin-3-yl)-2-(1-(2-methoxyethyl)-1H-pyrazol-4-yl)pyrazolo[5,1-b]thiazole-7-carboxamide]
IC50 (VEGFR2, unphosphorylated): > 7500 nM | IC50 [1]: 4.3 nM

Cc1ncc(NC(=O)CN2C[C@H](CO)OC(C)(C)C2)cc1NC(=O)c1cnn2cc(-c3cnn(C)c3)sc12 [Example 376, (R)—N-(5-(2-(6-(hydroxymethyl)-2,2-dimethylmorpholino)acetamido)-2-methylpyridin-3-yl)-2-(1-methyl-1H-pyrazol-4-yl)pyrazolo[5,1-b]thiazole-7-carboxamide]
IC50 (VEGFR2, unphosphorylated): > 7500 nM | IC50 [1]: 0.8 nM

COCCn1cc(-c2cn3ncc(C(=O)Nc4cc(NC(=O)CN5CC6CCC5CC6)cnc4C)c3s2)cn1 [Example 331, N-(5-(2-(2-azabicyclo[2.2.2]octan-2-yl)acetamido)-2-methylpyridin-3-yl)-2-(1-(2-methoxyethyl)-1H-pyrazol-4-yl)pyrazolo[5,1-b]thiazole-7-carboxamide]
IC50 (VEGFR2, unphosphorylated): > 7500 nM | IC50 [1]: 0.4 nM

COCCn1cc(-c2cn3ncc(C(=O)Nc4cc(NC(=O)CN5CCC(C)(C)C5)cnc4C)c3s2)cn1 [Example 336, N-(5-(2-(3,3-dimethylpyrrolidin-1-yl)acetamido)-2-methylpyridin-3-yl)-2-(1-(2-methoxyethyl)-1H-pyrazol-4-yl)pyrazolo[5,1-b]thiazole-7-carboxamide]
IC50 (VEGFR2, unphosphorylated): > 7500 nM | IC50 [1]: 0.4 nM

COCCn1cc(-c2cn3ncc(C(=O)Nc4cc(NC(=O)CN5C6CCC5CC6)cnc4C)c3s2)cn1 [Example 340, N-(5-(2-(7-azabicyclo[2.2.1]heptan-7-yl)acetamido)-2-methylpyridin-3-yl)-2-(1-(2-methoxyethyl)-1H-pyrazol-4-yl)pyrazolo[5,1-b]thiazole-7-carboxamide]
IC50 (VEGFR2, unphosphorylated): > 7500 nM | IC50 [1]: 0.5 nM

Cc1ncc(NC(=O)CN2C[C@H](C)O[C@@H](C)C2)cc1NC(=O)c1cnn2cc(-c3c(C)n[nH]c3C)sc12 (relative stereo) [Example 373, 2-(3,5-dimethyl-1H-pyrazol-4-yl)-N-(5-(2-(trans-2,6-dimethylmorpholino)acetamido)-2-methylpyridin-3-yl)pyrazolo[5,1-b]thiazole-7-carboxamide]
IC50 (VEGFR2, unphosphorylated): > 7500 nM | IC50 [1]: 1.3 nM

COCCn1cc(-c2cn3ncc(C(=O)Nc4cc(NC(=O)CN5CCC56CCC6)cnc4C)c3s2)cn1 [Example 333, N-(5-(2-(1-azaspiro[3.3]heptan-1-yl)acetamido)-2-methylpyridin-3-yl)-2-(1-(2-methoxyethyl)-1H-pyrazol-4-yl)pyrazolo[5,1-b]thiazole-7-carboxamide]
IC50 (VEGFR2, unphosphorylated): > 7500 nM | IC50 [1]: 0.4 nM

Cc1ncc(NC(=O)C2CCN(C(C)C)C2)cc1NC(=O)c1cnn2cc(-c3cnn(C)c3C)sc12 (centres unmarked) [Example 356, 2-(1,5-dimethyl-1H-pyrazol-4-yl)-N-(5-(1-isopropylpyrrolidine-3-carboxamido)-2-methylpyridin-3-yl)pyrazolo[5,1-b]thiazole-7-carboxamide]
IC50 (VEGFR2, unphosphorylated): > 7500 nM | IC50 [1]: 0.5 nM

COCCn1cc(-c2cn3ncc(C(=O)Nc4cc(NC(=O)CN5C[C@H]6CC[C@@H]5C6)cnc4C)c3s2)cn1 [Example 334, N-(5-(2-((1R,4S)-2-azabicyclo[2.2.1]heptan-2-yl)acetamido)-2-methylpyridin-3-yl)-2-(1-(2-methoxyethyl)-1H-pyrazol-4-yl)pyrazolo[5,1-b]thiazole-7-carboxamide]
IC50 (VEGFR2, unphosphorylated): > 7500 nM | IC50 [1]: 0.5 nM

Cc1ncc(NC(=O)CN2CCC3(CC2)CC3)cc1NC(=O)c1cnn2cc(-c3cnn(CCO)c3)sc12 [Example 31, N-(5-(2-(6-azaspiro[2.5]octan-6-yl)acetamido)-2-methylpyridin-3-yl)-2-(1-(2-hydroxyethyl)-1H-pyrazol-4-yl)pyrazolo[5,1-b]thiazole-7-carboxamide]
IC50 (VEGFR2, unphosphorylated): > 7500 nM | IC50 [1]: 0.6 nM

COCCn1cc(-c2cn3ncc(C(=O)Nc4cc(NC(=O)CN5CCCC6(CC6)C5)cnc4C)c3s2)cn1 [Example 335, N-(5-(2-(5-azaspiro[2.5]octan-5-yl)acetamido)-2-methylpyridin-3-yl)-2-(1-(2-methoxyethyl)-1H-pyrazol-4-yl)pyrazolo[5,1-b]thiazole-7-carboxamide]
IC50 (VEGFR2, unphosphorylated): > 7500 nM | IC50 [1]: 0.4 nM

Cc1ncc(NC(=O)CN2CCC[C@@H]2C)cc1NC(=O)c1cnn2cc(-c3ccnc(N4CCOCC4)c3)sc12 [Example 352, (S)—N-(2-methyl-5-(2-(2-methylpyrrolidin-1-yl)acetamido)pyridin-3-yl)-2-(2-morpholinopyridin-4-yl)pyrazolo[5,1-b]thiazole-7-carboxamide]
IC50 (VEGFR2, unphosphorylated): > 7500 nM | IC50 [1]: 0.3 nM

COc1ncc(-c2cn3ncc(C(=O)Nc4cc(NC(=O)CN5CC(C)(C)C5)cnc4C)c3s2)c(OC)n1 [Example 392, 2-(2,4-dimethoxypyrimidin-5-yl)-N-(5-(2-(3,3-dimethylazetidin-1-yl)acetamido)-2-methylpyridin-3-yl)pyrazolo[5,1-b]thiazole-7-carboxamide]
IC50 (VEGFR2, unphosphorylated): 7440 nM | IC50 [1]: 0.5 nM

COc1ccc(-c2cn3ncc(C(=O)Nc4cc(NC(=O)CN5CC(C)(C)C5)cnc4C)c3s2)cn1 [Example 395, N-(5-(2-(3,3-dimethylazetidin-1-yl)acetamido)-2-methylpyridin-3-yl)-2-(6-methoxypyridin-3-yl)pyrazolo[5,1-b]thiazole-7-carboxamide]
IC50 (VEGFR2, unphosphorylated): > 7500 nM | IC50 [1]: 0.4 nM

Cc1ncc(NC(=O)CN2CCC(C)(C)C2)cc1NC(=O)c1cnn2cc(-c3cnn(CCO)c3)sc12 [Example 28, N-(5-(2-(3,3-dimethylpyrrolidin-1-yl)acetamido)-2-methylpyridin-3-yl)-2-(1-(2-hydroxyethyl)-1H-pyrazol-4-yl)pyrazolo[5,1-b]thiazole-7-carboxamide]
IC50 (VEGFR2, unphosphorylated): > 7500 nM | IC50 [1]: 0.6 nM
